The test system of series [1] is Echinochloa oryzicola Vasing. The series is described as follows: Herbicidal effect by paddy field soil treatment. The following applies: wettable powder, active ingredient 1000 g/ha, examined at the 21st day from the treatment. It is filed as in vivo. More on the design: scale not given here. A digest of the protocol:
(§1)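 Seeds sown in puddled paddy soil under 3 cm of water; the next day wettable powders diluted in water were dropped onto the water surface at 1,000 g active ingredient/ha. Plants grown in a greenhouse, with herbicidal effect scored on day 21 against a rating standard.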

Series [2] relates to Monochoria vaginalis (Murm. f.) Presl var. plantaginea (Roxb.) Solms-Laub. As to the kind of experiment: Herbicidal effect by paddy field soil treatment. It is filed as in vivo. More on the design: scale not given here. The following applies: wettable powder, active ingredient 1000 g/ha, examined at the 21st day from the treatment. The method in brief:
as §1

The test system of series [3] is Echinochloa crus-galli (L.) Beauv. var. crusgalli. The series is described as follows: Herbicidal effect by upland field soil treatment. It is filed as in vivo. Further details: scale not given here. The conditions noted are these: active ingredient 1000 g/ha, examined at 21st day from treatment. The source says:
(§2) An upland field soil was filled in a plastic pot of 80 cm^2. Seeds of Echinochloa crus-galli (L.) Beauv. var. crusgalli and Setaria viridis (L.) Beauv. were sowed, followed by covering with the same soil. […] Then, breeding was made in a greenhouse, and the herbicidal effect of each wettable powder was examined at the 21st day from the treatment in accordance with the standard shown in Table 21.

Series [4] relates to Setaria viridis (L.) Beauv. The series is described as follows: Herbicidal effect by upland field soil treatment. It is filed as in vivo. More on the design: scale not given here. The conditions noted are these: active ingredient 1000 g/ha, examined at 21st day from treatment.
Description: as §2

Series [5] deals with Echinochloa crus-galli (L.) Beauv. var. crus-galli. The series is described as follows: Herbicidal effect by upland foliage treatment. It is filed as in vivo. Further details: scale not given here. The following applies: active ingredient 1000 g/ha, examined at 14th day from treatment. The method in brief: (§3)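 Two-week-old greenhouse plants in sand were sprayed over the whole foliage with water-diluted wettable powder at 1,000 liters per hectare, giving 1,000 g active ingredient per hectare. Herbicidal effect scored on a rating standard at day 14 after treatment.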

In series [6] the test system is Setaria viridis (L.) Beauv. As to the kind of experiment: Herbicidal effect by upland foliage treatment. The conditions noted are these: active ingredient 1000 g/ha, examined at 14th day from treatment. It is filed as in vivo. Further details: scale not given here. A digest of the protocol: as §3

Structures are written as SMILES.

Usually melting point stands for the temperature of the solid-liquid transition. With `CON=C(C)c1c(C)sc(C)c1CS(=O)(=O)C1=NOC(C)(C)C1` [2-0001, 5,5-dimethyl-3-[2,5-dimethyl-4-(1-methoxyiminoethyl)-thiophen-3-ylmethylsulfonyl]-2-isoxazoline], the melting point lay in the range of 95 to 96 °C. Further, the “Herbicidal effect index, Echinochloa oryzicola Vasing” value in series [1] was determined as 5. In series [2], the “Herbicidal effect index, Monochoria vaginalis (Burm. F.) Presl var. plantaginea (Roxb.) Solms-Laub.” value (from here on “Herbicidal effect index … (Roxb.) Solms-Laub.”) is 5. The “herbicidal effect (index per standard of Table 21), Echinochloa curs-galli (L.) Beauv. Var. crus-galli” value in series [3] was found to be 5. Further, the “herbicidal effect (index per standard of Table 21), Setaria viridis (L.) Beauv.” value in series [4] is 5. Further, the “herbicidal effect (index per standard of Table 21), Echinochloa curs-galli (L.) Beauv. Var. crus-galli” value in series [5] worked out at 5. Also, in series [6], the “herbicidal effect (index per standard of Table 21), Setaria viridis (L.) Beauv.” value is on record as 4.

As to `COc1c(CS(=O)(=O)C2=NOC(C)(C)C2)c(C(F)(F)F)nn1C` [3-0013, 5,5-dimethyl-3-(5-methoxy-1-methyl-3-trifluoromethyl-1H-pyrazol-4-ylmethylsulfonyl)-2-isoxazoline], the melting point was 113 to 114 °C. For the same molecule, the “Herbicidal effect index, Echinochloa oryzicola Vasing” value in series [1] came to 5. The “Herbicidal effect index … (Roxb.) Solms-Laub.” value in series [2] is 5. In addition, in series [3], the “herbicidal effect (index per standard of Table 21), Echinochloa curs-galli (L.) Beauv. Var. crus-galli” value was found to be 5. Further, the “herbicidal effect (index per standard of Table 21), Setaria viridis (L.) Beauv.” value in series [4] is reported as 5. In addition, the “herbicidal effect (index per standard of Table 21), Echinochloa curs-galli (L.) Beauv. Var. crus-galli” value in series [5] came out at 5. Further, the “herbicidal effect (index per standard of Table 21), Setaria viridis (L.) Beauv.” value in series [6] was determined as 5.

Molecule `Cn1nc(C(F)(F)F)c(CS(=O)(=O)C2=NOC(C)(C)C2)c1OC1CCCC1` [3-0015, 3-(5-cyclopentyloxy-1-methyl-3-trifluoromethyl-1H-pyrazol-4-ylmethylsulfonyl)-5,5-dimethyl-2-isoxazoline] had a melting point of 113 to 114 °C. Moreover, the “Herbicidal effect index, Echinochloa oryzicola Vasing” value in series [1] worked out at 5. Moreover, in series [2], the “Herbicidal effect index … (Roxb.) Solms-Laub.” value is 5. In series [3], the “herbicidal effect (index per standard of Table 21), Echinochloa curs-galli (L.) Beauv. Var. crus-galli” value came out at 5. Further, the “herbicidal effect (index per standard of Table 21), Setaria viridis (L.) Beauv.” value in series [4] is 5. The “herbicidal effect (index per standard of Table 21), Echinochloa curs-galli (L.) Beauv. Var. crus-galli” value in series [5] turned out to be 5. Besides, in series [6], the “herbicidal effect (index per standard of Table 21), Setaria viridis (L.) Beauv.” value is given as 4.

The values above are taken from patent US7238689B2, “Isoxazoline derivative and herbicide comprising the same as active ingredient” (Ihara Chemical Industry Co., Ltd., priority 2001, dated 2007).
